Data from patent publication US20170209455A1, “Solid Pharmaceutical Composition Comprising PI3K-Inhibitor” (NOVARTIS AG, priority 2014, published 2017).

Tests used:
Format in all cases: physicochemical
[1] = Physical state of compound of formula (I) in melt extrudates by XRPD
Description: X-Ray Powder Diffraction (XRPD) Analysis
• Principle: X-ray powder diffraction (XRPD) in reflection geometry • Equipment: Powder diffractomer e.g. type Bruker D8 Discover • Procedure: Place the test substance on the specimen holder. Record the X-ray diffraction pattern between 5° and 40° (2-theta) with Cu Kα radiation (1.5406 Å) in reflection geometry using the following conditions • Detector type: Lynx Eye • High voltage: 40 kV • Current: 40 mA • Scan type: continuous • Step time: 0.3 s • Step size: 0.016° • Soller slit: 2.5° • Slits: 0.6 mm • Method: A part of the sample is used without preparation for the measurement. […] Record the X-ray diffraction pattern between 5° and 40° (2Theta) with CuKα radiation. • Evaluation: Observe the recorded diffractogram and report any detectable diffraction peak. […]
(§1) Melt extrudates were prepared according to example 1. The kinetic solubility and the physical state of the compound of formula (I) were determined. […] Kinetic solubility were determined by adding melt extrudates equivalent to 100 mg of the compound of formula (I) in pH 6.8 phosphate buffer using a rotating bottle at 50 rpm and at a temperature of 37° C. The physical state (crystalline or amorphous) was determined by XRPD (discrete peaks indicating some of the material being in a crystalline state, absence of peaks indicating amorphous state).

[2] = Kinetic solubility of melt extrudates (rotating bottle); details: aqueous buffer; melt extrudates equivalent to 100 mg compound of formula (I), pH 6.8 phosphate buffer, rotating bottle 50 rpm, 37° C.
Description: • Principle: Measurement of the amount of drug substance solubilized using rotating bottle apparatus. Determination by HPLC/UV method for sample analysis.
• Speed of rotation: 50 rpm • Test medium: […] • Volume of test medium: 75 mL • Temperature: 37±0.5° C. Sampling Time points 5, 10, 15, 20, 25, 30, 45, 60 minutes
Procedure: The concentration maximum is taken as kinetic solubility value.
as §1

[3] = Chemical compatibility of the compound of formula (I) with polymers: melt extrudates analysed by HPLC for total impurity; details: hot melt extrusion
Description: Assay, Degradation Products/Impurities by HPLC
Principle: RP HPLC with UV detection
• Acetonitrile (HPLC grade, e.g. Merck) • Water (e.g. from Milli-Q instrument) • Methanol (Analytical grade, e.g. Sigma-Aldrich or equivalent) • Solvent: Water/acetonitrile 40/60 (v/v)
• Apparatus: e.g. HP 1290 (UPLC) • Column: Waters Acquity BEH C18 (Length 100 mm, internal diameter 2.1 mm or equivalent column and particle size 1.7 μm)
• Mobile Phase: • A: Water/Acetonitrile/TFA (95:5:0.05 v/v/v) • B: Water/Acetonitrile/TFA (5:95:0.05 v/v/v)
Column temperature: 30° C. Auto-sampler temperature: Ambient Needle wash: Methanol/water 80/20 (v/v) Injection volume: • 2 μl of the test and reference solutions, equivalent to about • 0.6 μg of drug substance compound of formula (I) in the reference solution Run time: 18 min […]
The compatibility of the compound of formula (I) with various polymers was tested by preparing melt extrudates according to the manufacturing process as described in example 1 and analyzing the resulting melt extrudates by HPLC to determine the amount of degradation or related products (“impurities”) of the compound of formula (I). […] The amount of total impurities was assessed according to the guideline that the sum of specified and unspecified impurities (herein referred to as total impurity) is preferably not more than (NMT) 0.5%. […]

- Physical state of compound of formula (I) (XRPD) [1]: Crystalline
- solubility kinetic [2]: ~40 µg/mL
- processing temperature leading to degradation of compound of formula (I) [3]: exceeding 205 °C
SMILES: C[C@H]1OC(=O)N(c2cc(-c3cnc(N)nc3C(F)(F)F)nc(N3CCOCC3)n2)[C@H]1CO [compound of formula (I), (4S,5R)-3-(2′-Amino-2-morpholin-4-yl-4′-trifluoromethyl-[4,5]bipyrimidinyl-6-yl)-4-hydroxymethyl-5-methyl-oxazolidin-2-one]
